The record followed here is article PMC5951806, “Rapid labelling and covalent inhibition of intracellular native proteins using ligand-directed N-acyl-N-alkyl sulfonamide” (Nature Communications, 2018).

What all share (test): TMT LC-MSMS of 11-labelled proteins
Holding throughout (format): cell-based

The target in test [1] is Hemoglobin subunit alpha (HBA2; HBA1) (Homo sapiens, UniProt P69905). From the text: (§1) Supplement 41467_2018_4343_MOESM4_ESM.xlsx, sheet "Exp2" | column: Abundance Ratio: (11) / (11 with PU-H71); Abundance Ratio: (11) / (DMSO); Abundances (Grouped): 11; Abundances (Grouped): 11 with PU-H71
Test [2] concerns the target T1, Monocarboxylate transporter 4 (SLC16A3) (Homo sapiens, UniProt O15427).
T1 sequence (O15427 1-465): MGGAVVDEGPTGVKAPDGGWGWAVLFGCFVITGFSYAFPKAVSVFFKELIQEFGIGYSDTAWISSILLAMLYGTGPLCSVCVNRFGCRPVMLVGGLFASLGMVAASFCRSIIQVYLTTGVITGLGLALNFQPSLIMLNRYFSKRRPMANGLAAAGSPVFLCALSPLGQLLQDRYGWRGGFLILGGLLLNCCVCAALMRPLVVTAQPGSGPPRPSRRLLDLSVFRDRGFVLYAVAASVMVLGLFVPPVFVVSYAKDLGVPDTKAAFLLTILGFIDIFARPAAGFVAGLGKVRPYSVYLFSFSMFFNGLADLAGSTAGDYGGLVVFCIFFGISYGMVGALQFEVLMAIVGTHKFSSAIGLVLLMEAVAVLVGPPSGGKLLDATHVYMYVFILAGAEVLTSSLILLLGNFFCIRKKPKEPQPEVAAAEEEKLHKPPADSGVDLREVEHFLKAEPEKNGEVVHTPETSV
Text: as §1

The target in test [3] is T2, Phosphate carrier protein, mitochondrial (SLC25A3) (Homo sapiens, UniProt Q00325).
T2 sequence (Q00325 50-362): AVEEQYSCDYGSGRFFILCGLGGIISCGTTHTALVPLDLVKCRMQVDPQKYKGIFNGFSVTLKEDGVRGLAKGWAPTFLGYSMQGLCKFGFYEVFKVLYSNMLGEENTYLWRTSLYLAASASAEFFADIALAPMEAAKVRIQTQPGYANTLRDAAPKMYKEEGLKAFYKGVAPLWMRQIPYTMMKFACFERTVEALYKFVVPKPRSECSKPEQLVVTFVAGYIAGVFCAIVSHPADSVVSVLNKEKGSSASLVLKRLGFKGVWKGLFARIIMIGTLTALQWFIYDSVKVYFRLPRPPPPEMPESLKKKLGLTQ
Text: as §1

For test [4], the target named is Dolichyl-diphosphooligosaccharide--protein glycosyltransferase subunit 1 (RPN1) (Homo sapiens, UniProt P04843).
Text: as §1

Another test deals with protein MAL2 (MAL2) (Homo sapiens, UniProt Q969L2).
Text: as §1

Another test concerns the target Alpha-actinin-4 (ACTN4) (Homo sapiens, UniProt O43707).
Text: as §1

Sequence of Hemoglobin subunit alpha (HBA2; HBA1) (P69905 2-142 limits assumed): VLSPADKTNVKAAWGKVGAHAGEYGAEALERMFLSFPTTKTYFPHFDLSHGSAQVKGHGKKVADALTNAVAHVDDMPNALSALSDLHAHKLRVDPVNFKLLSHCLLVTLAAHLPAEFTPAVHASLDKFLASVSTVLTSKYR
Sequence of Alpha-actinin-4 (ACTN4) (O43707 whole entry): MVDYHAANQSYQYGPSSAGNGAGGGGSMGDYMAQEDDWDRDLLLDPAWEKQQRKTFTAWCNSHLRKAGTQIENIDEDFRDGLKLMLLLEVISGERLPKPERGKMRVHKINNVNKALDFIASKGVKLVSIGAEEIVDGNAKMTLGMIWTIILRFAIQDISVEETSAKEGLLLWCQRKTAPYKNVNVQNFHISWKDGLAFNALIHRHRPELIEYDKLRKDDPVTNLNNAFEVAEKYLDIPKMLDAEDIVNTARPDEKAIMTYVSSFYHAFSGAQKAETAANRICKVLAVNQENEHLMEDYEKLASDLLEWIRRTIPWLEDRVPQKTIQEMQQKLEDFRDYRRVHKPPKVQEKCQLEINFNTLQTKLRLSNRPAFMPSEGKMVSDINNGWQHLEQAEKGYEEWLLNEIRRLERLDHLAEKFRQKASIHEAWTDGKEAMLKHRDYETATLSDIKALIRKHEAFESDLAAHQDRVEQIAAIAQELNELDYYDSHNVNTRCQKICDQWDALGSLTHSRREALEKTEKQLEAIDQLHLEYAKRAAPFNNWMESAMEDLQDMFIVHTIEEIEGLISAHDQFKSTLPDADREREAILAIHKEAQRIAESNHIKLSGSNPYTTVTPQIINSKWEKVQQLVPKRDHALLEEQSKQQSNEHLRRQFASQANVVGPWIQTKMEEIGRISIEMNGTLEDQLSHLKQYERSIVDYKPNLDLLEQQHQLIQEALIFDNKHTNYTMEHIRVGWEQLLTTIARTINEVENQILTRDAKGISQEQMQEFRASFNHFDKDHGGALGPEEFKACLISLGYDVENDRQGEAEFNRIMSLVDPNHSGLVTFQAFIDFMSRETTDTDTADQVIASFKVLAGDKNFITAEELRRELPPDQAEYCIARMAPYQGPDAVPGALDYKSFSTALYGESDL
Sequence of protein MAL2 (MAL2) (Q969L2 whole entry): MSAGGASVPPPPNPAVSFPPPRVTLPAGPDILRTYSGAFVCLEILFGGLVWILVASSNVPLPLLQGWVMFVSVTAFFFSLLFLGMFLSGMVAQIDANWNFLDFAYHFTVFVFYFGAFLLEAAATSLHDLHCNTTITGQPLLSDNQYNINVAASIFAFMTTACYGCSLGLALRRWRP
Sequence of Dolichyl-diphosphooligosaccharide--protein glycosyltransferase subunit 1 (RPN1) (P04843 24-607): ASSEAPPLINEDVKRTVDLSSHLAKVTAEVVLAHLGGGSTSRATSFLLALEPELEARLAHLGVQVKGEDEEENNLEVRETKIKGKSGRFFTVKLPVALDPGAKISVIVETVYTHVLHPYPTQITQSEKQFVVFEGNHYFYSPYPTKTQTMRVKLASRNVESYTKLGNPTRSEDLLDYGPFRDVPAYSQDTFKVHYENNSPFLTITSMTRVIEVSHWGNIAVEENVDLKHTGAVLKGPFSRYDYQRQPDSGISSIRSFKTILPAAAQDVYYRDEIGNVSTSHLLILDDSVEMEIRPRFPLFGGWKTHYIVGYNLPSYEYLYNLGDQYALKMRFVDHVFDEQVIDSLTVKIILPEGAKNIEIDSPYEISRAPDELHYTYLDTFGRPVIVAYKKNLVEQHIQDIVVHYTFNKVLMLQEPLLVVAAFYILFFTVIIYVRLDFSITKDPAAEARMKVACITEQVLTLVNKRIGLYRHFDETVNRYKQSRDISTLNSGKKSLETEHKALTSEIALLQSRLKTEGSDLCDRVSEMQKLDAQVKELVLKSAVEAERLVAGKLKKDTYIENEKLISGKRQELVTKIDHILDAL
Sequence of Dolichyl-diphosphooligosaccharide--protein glycosyltransferase subunit 1 (RPN1) (P39656 43-456 partner): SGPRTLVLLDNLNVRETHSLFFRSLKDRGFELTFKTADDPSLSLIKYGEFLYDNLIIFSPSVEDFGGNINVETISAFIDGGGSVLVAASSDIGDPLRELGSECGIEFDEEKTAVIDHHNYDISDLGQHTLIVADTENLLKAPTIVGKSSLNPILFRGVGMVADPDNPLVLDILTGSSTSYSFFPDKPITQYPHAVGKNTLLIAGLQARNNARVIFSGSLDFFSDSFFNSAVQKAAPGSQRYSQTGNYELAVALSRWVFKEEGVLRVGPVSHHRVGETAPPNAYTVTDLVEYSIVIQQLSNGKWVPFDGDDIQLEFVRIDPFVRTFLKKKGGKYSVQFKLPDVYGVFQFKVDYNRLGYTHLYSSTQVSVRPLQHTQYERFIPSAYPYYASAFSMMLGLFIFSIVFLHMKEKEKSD
Sequence of Dolichyl-diphosphooligosaccharide--protein glycosyltransferase subunit 1 (RPN1) (P04844 23-631 partner): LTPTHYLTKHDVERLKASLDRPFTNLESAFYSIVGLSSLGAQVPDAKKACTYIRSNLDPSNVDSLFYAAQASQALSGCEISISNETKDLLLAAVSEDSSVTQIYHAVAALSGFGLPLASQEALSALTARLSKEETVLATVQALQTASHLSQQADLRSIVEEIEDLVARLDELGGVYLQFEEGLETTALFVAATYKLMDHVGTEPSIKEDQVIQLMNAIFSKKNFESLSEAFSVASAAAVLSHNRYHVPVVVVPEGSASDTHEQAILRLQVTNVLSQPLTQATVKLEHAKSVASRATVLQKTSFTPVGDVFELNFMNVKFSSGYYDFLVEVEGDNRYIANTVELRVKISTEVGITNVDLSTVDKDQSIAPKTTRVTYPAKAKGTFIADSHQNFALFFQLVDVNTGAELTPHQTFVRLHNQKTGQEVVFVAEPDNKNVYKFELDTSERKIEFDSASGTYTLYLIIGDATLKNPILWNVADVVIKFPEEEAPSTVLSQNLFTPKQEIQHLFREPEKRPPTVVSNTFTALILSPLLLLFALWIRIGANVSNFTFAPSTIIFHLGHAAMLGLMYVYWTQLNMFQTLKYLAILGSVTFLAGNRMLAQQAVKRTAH
Sequence of Dolichyl-diphosphooligosaccharide--protein glycosyltransferase subunit 1 (RPN1) (P61803 whole entry partner): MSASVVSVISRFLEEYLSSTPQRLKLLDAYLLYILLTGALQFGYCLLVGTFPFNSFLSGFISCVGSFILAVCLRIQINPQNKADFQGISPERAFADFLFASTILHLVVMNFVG
Sequence of Dolichyl-diphosphooligosaccharide--protein glycosyltransferase subunit 1 (RPN1) (P61165 whole entry partner): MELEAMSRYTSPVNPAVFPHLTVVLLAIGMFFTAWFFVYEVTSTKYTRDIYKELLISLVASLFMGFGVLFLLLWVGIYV
Sequence of Dolichyl-diphosphooligosaccharide--protein glycosyltransferase subunit 1 (RPN1) (P0C6T2 whole entry partner): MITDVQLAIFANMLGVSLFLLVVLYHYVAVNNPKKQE

On to `CC(=O)Oc1ccc2c(c1)Oc1cc(OC(C)=O)ccc1C21OC(=O)c2cc(C(=O)NCCOCCOCCNC(=O)CCCC(=O)N(CC#N)S(=O)(=O)c3ccc(C(=O)NCCCn4c(Sc5cc6c(cc5I)OCO6)nc5c(N)ncnc54)cc3)ccc21` [compound 11], for which the “Abundance Ratio: (11) / (11 with PU-H71)” value was 0.752 in test [1] (sheet Exp2); 0.892 in test [2] (sheet Exp2); 0.7 in test [3] (sheet Exp2); 0.909 in test [4] (sheet Exp2); 0.886 on protein MAL2 (MAL2) (sheet Exp2); 0.876 on Alpha-actinin-4 (ACTN4) (sheet Exp2). Further, the “Abundance Ratio: (11) / (DMSO)” value in test [1] (sheet Exp2) is recorded as 2.578; in test [2] (sheet Exp2), 8.305; in test [3] (sheet Exp2), 2.264; in test [4] (sheet Exp2), 2.785; on protein MAL2 (MAL2) (sheet Exp2) it was 3.449; at Alpha-actinin-4 (ACTN4) (sheet Exp2), 1.667. For the same molecule, the “Abundances (Grouped): 11” value is 76.3 in test [1] (sheet Exp2); 225.9 in test [2] (sheet Exp2); 124.5 in test [3] (sheet Exp2); 47.9 in test [4] (sheet Exp2); 114.5 at protein MAL2 (MAL2) (sheet Exp2); 24 on Alpha-actinin-4 (ACTN4) (sheet Exp2). Moreover, the “Abundances (Grouped): 11 with PU-H71” value in test [1] (sheet Exp2, with PU-H71) was 101.4; in test [2] (sheet Exp2, with PU-H71) it was 253.2; in test [3] (sheet Exp2, with PU-H71) it was 177.9; in test [4] (sheet Exp2, with PU-H71), 52.7; on protein MAL2 (MAL2) (sheet Exp2, with PU-H71), 129.3; at Alpha-actinin-4 (ACTN4) (sheet Exp2, with PU-H71) it was 27.4.
